These compounds were tested against T1, human Edg-1 (S1P1) (Homo sapiens, UniProt P21453) (assay: S1P1 binding inhibition test (membrane, [33P]-S1P)). Settings: compound 10 μM; [33P]-S1P 0.1 nM; human Edg-1 (S1P1) HEK-293 membrane fraction; read-out: Binding test (membrane) % inhibition (10 μM).
T1 construct: expressed in transfected cells; host or cells: HEK-293
Method: The membrane fraction was obtained by treating the cells with a solubilizing buffer (1 mM Tris/HCl, pH 7.2) for 10 minutes on ice, centrifuging at 1000×g for 5 minutes to remove insoluble fractions, and then centrifuging at 40000×g for 30 minutes at 4° C. The resulting membrane fraction was dissolved in a binding buffer (20 mM Tris-HCl, pH 7.4, 100 mM NaCl, 15 mM NaF, 2 mM deoxypyridoxine, 4 mg/mL fatty acid-free BSA), and then [^33P]-S1P (manufactured by ARC, final concentration 0.1 nM) and a DMSO solution (final concentration of the compound 10^−5 M, final concentration of DMSO 0.1%) of the test compound were added. Thereafter, the mixture was stirred and then treated for one hour at 30° C. Using a harvester, the membrane fraction was harvested onto unifilter-96 GF/C filter (manufactured by Perkin Elmer), washing was carried out four times with the binding buffer, and the filter was dried. Twenty five μL Microscint 0 (manufactured by Perkin Elmer) was added, and radioactivity was measured using Top Count NXT (manufactured by Packard) to calculate the amount (A) of [^33P]-S1P bound to the membrane fraction at the time when the compound was added.
The same procedure was carried out in the absence of the test compound, and the amount (B) of [^33P]-S1P bound was calculated. Further, the same procedure was carried out in the absence of the test compound by use of HEK-293 cells to which no Edg-1 (S1P1) gene was introduced, and the background amount (C) of [^33P]-S1P bound was calculated.
Inhibition rate (%)=[1−(A−C)/(B−C)]×100.
Moreover, the concentration required for a test compound to produce 50% inhibition of the binding caused in the absence of the test compound was also calculated (IC50). The above membrane system binding test was performed in the presence of a test compound at various concentrations to calculate the inhibition rate of Edg-1(S1P1) binding at each concentration according to the above equation, followed by calculating an IC50 value for each compound with data analysis software, Origin (Lightstone Corp., Japan).

T1 sequence (P21453 whole entry): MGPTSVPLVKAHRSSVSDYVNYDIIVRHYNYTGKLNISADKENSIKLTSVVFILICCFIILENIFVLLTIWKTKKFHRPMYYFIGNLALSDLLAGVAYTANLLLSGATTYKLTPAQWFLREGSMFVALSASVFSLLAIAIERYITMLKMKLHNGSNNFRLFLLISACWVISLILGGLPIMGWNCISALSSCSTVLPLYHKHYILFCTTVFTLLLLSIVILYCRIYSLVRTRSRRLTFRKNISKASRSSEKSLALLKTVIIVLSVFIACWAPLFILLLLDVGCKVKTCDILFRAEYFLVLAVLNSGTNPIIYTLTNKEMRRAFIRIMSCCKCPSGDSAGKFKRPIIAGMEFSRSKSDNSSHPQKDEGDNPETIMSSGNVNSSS

SMILES | inhibition at 10 µM
CCn1c(C(C)NS(=O)(=O)c2cc(OC)ccc2OC)cnc1Oc1ccc(C)cc1 (stereo not shown) [Compound 81] | 83.1%
CCn1c(C(C)NS(=O)(=O)c2cc(Br)ccc2OC)cnc1Oc1ccc(C)cc1 (stereo not shown) [Compound 69] | 82.9%
CCn1c(C(C)NS(=O)(=O)c2cc(C)c(Cl)cc2Cl)cnc1Oc1ccc(C)cc1 (stereo not shown) [Compound 101] | 107%
CCn1c(C(C)NS(=O)(=O)c2ccc(Cl)c(Cl)c2)cnc1Oc1cccc(-n2cccc2)c1 (stereo not shown) [Compound 249, 3,4-Dichloro-N-{1-[3-ethyl-2-(3-pyrrol-1-yl-phenoxy)-3H-imidazol-4-yl]-ethyl}-benzenesulfonamide] | 100%
CCn1c(C(C)NS(=O)(=O)c2ccc(OC(F)F)cc2)cnc1Oc1ccc(C)cc1 (stereo not shown) [Compound 116] | 78.2%
CCn1c(C(C)NS(=O)(=O)c2ccc(F)cc2Br)cnc1Oc1ccc(C)cc1 (stereo not shown) [Compound 123] | 70.6%
CCn1c(C(C)NS(=O)(=O)c2cccc(C)c2)cnc1Oc1ccc(C)cc1 (stereo not shown) [Compound 41] | 82.3%
CCn1c(C(C)NS(=O)(=O)c2cccc(OC(F)F)c2)cnc1Oc1ccc(C)cc1 (stereo not shown) [Compound 117] | 87.3%
CCc1cc(Br)ccc1S(=O)(=O)NC(C)c1cnc(Oc2ccc(C)cc2)n1CC (stereo not shown) [Compound 87] | 65.6%
CCn1c(C(C)NS(=O)(=O)c2cc(C)ccc2OC)cnc1Oc1ccc(C)cc1 (stereo not shown) [Compound 73] | 74.3%
CCn1c(C(C)NS(=O)(=O)c2cc(F)c(F)cc2F)cnc1Oc1ccc(C)cc1 (stereo not shown) [Compound 109] | 81.3%
CCn1c(C(C)NS(=O)(=O)c2ccc(F)cc2C)cnc1Oc1ccc(C)cc1 (stereo not shown) [Compound 127] | 86.4%
CCn1c(C(C)NS(=O)(=O)c2cccc3cnccc23)cnc1Oc1ccc(C)cc1 (stereo not shown) [Compound 169] | 62%
CCn1c(C(C)NS(=O)(=O)c2ccc(C)c(C)c2)cnc1Oc1ccc(C)cc1 (stereo not shown) [Compound 133] | 104%
C=Cc1ccc(S(=O)(=O)NC(C)c2cnc(Oc3ccc(C)cc3)n2CC)cc1 (stereo not shown) [Compound 40] | 81.2%
CCn1c(C(C)NS(=O)(=O)c2c(C)cccc2Cl)cnc1Oc1ccc(C)cc1 (stereo not shown) [Compound 60] | 64.5%
CCn1c(C(C)NS(=O)(=O)c2c(C)cc(Cl)cc2Cl)cnc1Oc1ccc(C)cc1 (stereo not shown) [Compound 108] | 81.3%
CCn1c(C(C)NS(=O)(=O)c2cc(Cl)ccc2F)cnc1Oc1ccc(C)cc1 (stereo not shown) [Compound 128] | 65.6%
CCn1c(C(C)NS(=O)(=O)c2cccc(C#N)c2)cnc1Oc1ccc(C)cc1 (stereo not shown) [Compound 13] | 64.4%
CCn1c(C(C)NS(=O)(=O)c2ccc(C)c(F)c2)cnc1Oc1ccc(C)cc1 (stereo not shown) [Compound 126] | 99.3%

SMILES | inhibition at 10 µM
CCn1c(C(C)NS(=O)(=O)c2cccc(F)c2)cnc1Oc1ccc(C)cc1 (stereo not shown) [Compound 105] | 84.2%
CCn1c(C(C)NS(=O)(=O)c2cccc(Cl)c2Cl)cnc1Oc1ccc(C)cc1 (stereo not shown) [Compound 59] | 101%
CCn1c(C(C)NS(=O)(=O)c2ccc(Br)cc2)cnc1Oc1ccc(C)cc1 (stereo not shown) [Compound 5] | 106%
CCn1c(C(C)NS(=O)(=O)c2ccc(-c3csnn3)s2)cnc1Oc1ccc(C)cc1 (stereo not shown) [Compound 46] | 58.8%
CCn1c(C(C)NS(=O)(=O)c2sc3ccc(Cl)cc3c2C)cnc1Oc1ccc(C)cc1 (stereo not shown) [Compound 14] | 76.5%
CCn1c(C(C)NS(=O)(=O)c2cc(C)ccc2C)cnc1Oc1ccc(C)cc1 (stereo not shown) [Compound 45] | 85.8%
CCn1c(C(C)NS(=O)(=O)c2ccc(I)cc2)cnc1Oc1ccc(C)cc1 (stereo not shown) [Compound 31] | 93.3%
CCn1c(C(C)NS(=O)(=O)c2ccc(F)c(Cl)c2)cnc1Oc1ccc(C)cc1 (stereo not shown) [Compound 65] | 106%
CCn1c(C(C)NS(=O)(=O)c2cc(F)ccc2C)cnc1Oc1ccc(C)cc1 (stereo not shown) [Compound 70] | 56.8%
CCn1c(C(C)NS(=O)(=O)c2ccc(Br)cc2Br)cnc1Oc1ccc(C)cc1 (stereo not shown) [Compound 113] | 77.8%
CCn1c(C(C)NS(=O)(=O)c2ccc(Cl)cc2Cl)cnc1Oc1ccc(C)cc1 (stereo not shown) [Compound 79] | 90.1%
CCn1c(C(C)NS(=O)(=O)c2ccc(C)c(Cl)c2)cnc1Oc1ccc(C)cc1 (stereo not shown) [Compound 15] | 108%
CCn1c(C(C)NS(=O)(=O)c2ccc(Br)c(F)c2)cnc1Oc1ccc(C)cc1 (stereo not shown) [Compound 129] | 102%
CCn1c(C(C)NS(=O)(=O)c2ccc(C(C)(C)C)cc2)cnc1Oc1ccc(C)cc1 (stereo not shown) [Compound 6] | 54.7%
CCn1c(C(C)NS(=O)(=O)c2ccc(Cl)c(Cl)c2)cnc1Oc1ccc2cc[nH]c2c1 (stereo not shown) [Compound 250, 3,4-Dichloro-N-{1-[3-ethyl-2-(1H-indol-6-yloxy)-3H-imidazol-4-yl]-ethyl}-benzenesulfonamide] | 101%
CCn1c(C(C)NS(=O)(=O)/C=C/c2ccccc2)cnc1Oc1ccc(C)cc1 (stereo not shown) [Compound 32] | 93.5%
CCn1c(C(C)NS(=O)(=O)c2ccc(F)cc2)cnc1Oc1ccc(C)cc1 (stereo not shown) [Compound 22] | 92.1%
CCn1c(C(C)NS(=O)(=O)c2cccc3ccccc23)cnc1Oc1ccc(C)cc1 (stereo not shown) [Compound 27] | 68.5%
CCn1c(C(C)NS(=O)(=O)c2cc(Cl)ccc2Cl)cnc1Oc1ccc(C)cc1 (stereo not shown) [Compound 17] | 80%
CCc1ccc(S(=O)(=O)NC(C)c2cnc(Oc3ccc(C)cc3)n2CC)cc1 (stereo not shown) [Compound 21] | 66.8%

SMILES | inhibition at 10 µM
CCn1c(C(C)NS(=O)(=O)c2cccc(C(C)=O)c2)cnc1Oc1ccc(C)cc1 (stereo not shown) [Compound 161] | 71.2%
CCn1c(C(C)NS(=O)(=O)c2ccc(F)c(F)c2)cnc1Oc1ccc(C)cc1 (stereo not shown) [Compound 94] | 86.5%
CCn1c(C(C)NS(=O)(=O)c2ccc(Br)c(Br)c2)cnc1Oc1ccc(C)cc1 (stereo not shown) [Compound 72] | 90.1%
CCn1c(C(C)NS(=O)(=O)c2ccccc2Br)cnc1Oc1ccc(C)cc1 (stereo not shown) [Compound 7] | 63.3%
CCn1c(C(C)NS(=O)(=O)c2cc(Br)ccc2Br)cnc1Oc1ccc(C)cc1 (stereo not shown) [Compound 110] | 86.4%
CCn1c(C(C)NS(=O)(=O)c2c(F)cc(F)cc2Br)cnc1Oc1ccc(C)cc1 (stereo not shown) [Compound 118] | 62.5%
CCn1c(C(C)NS(=O)(=O)c2ccc(C#N)cc2Cl)cnc1Oc1ccc(C)cc1 (stereo not shown) [Compound 89] | 71.8%
CC[C@H](NS(=O)(=O)c1ccc(Cl)c(Cl)c1)c1cnc(Oc2ccc(F)cc2)n1CC [Compound 254, (S)-(−)-3,4-Dichloro-N-{1-[3-ethyl-2-(4-fluorophenoxy)-3H-imidazol-4-yl]-propyl}-benzenesulfonamide] | 68.6%
CCn1c(C(C)N(C)S(=O)(=O)c2ccc(Cl)c(Cl)c2)cnc1Oc1ccc(Cl)cc1 (stereo not shown) [Compound 248, 3,4-Dichloro-N-{1-[2-(4-chlorophenoxy)-3-ethyl-3H-imidazol-4-yl]-ethyl}-N-methyl-benzenesulfonamide] | 90.2%
CCn1c(C(C)NS(=O)(=O)c2cccc(OC)c2)cnc1Oc1ccc(C)cc1 (stereo not shown) [Compound 66] | 89.9%
CCCc1ccc(S(=O)(=O)NC(C)c2cnc(Oc3ccc(C)cc3)n2CC)cc1 (stereo not shown) [Compound 56] | 57.3%
CCn1c(Oc2ccc(C)cc2)cnc1C(C)NS(=O)(=O)c1ccc(Cl)c(Cl)c1 (stereo not shown) [Compound 179, 3,4-Dichloro-N-[1-(1-ethyl-5-(4-methylphenoxy)-1H-imidazol-2-yl)-ethyl]-benzenesulfonamide] | 95.9%
CCn1c(C(C)NS(=O)(=O)c2ccc(F)c3ccccc23)cnc1Oc1ccc(C)cc1 (stereo not shown) [Compound 162] | 70.2%
CCn1c(C(C)NS(=O)(=O)c2c(F)c(F)c(F)c(F)c2F)cnc1Oc1ccc(C)cc1 (stereo not shown) [Compound 30] | 75.8%
CCn1c(C(C)NS(=O)(=O)c2cc(F)cc(F)c2)cnc1Oc1ccc(C)cc1 (stereo not shown) [Compound 119] | 91.1%
CCn1c(C(C)NS(=O)(=O)c2ccc3ccccc3c2)cnc1Oc1ccc(C)cc1 (stereo not shown) [Compound 28] | 114%
CCn1c(C(C)NS(=O)(=O)c2c(F)c(Br)cc(F)c2Br)cnc1Oc1ccc(C)cc1 (stereo not shown) [Compound 102] | 78.2%
CCn1c(C(C)NS(=O)(=O)c2cc(C)ccc2F)cnc1Oc1ccc(C)cc1 (stereo not shown) [Compound 134] | 81%
CCn1c(C(C)NS(=O)(=O)c2ccc(Cl)c(Cl)c2)cnc1Sc1ccc(C)cc1 (stereo not shown) [Compound 241, 3,4-Dichloro-N-[1-(3-ethyl-2-p-tolylsulfanyl-3H-imidazol-4-yl)-ethyl]-benzenesulfonamide] | 82.6%

Same assay, conditions: membrane system binding test, various concentrations

SMILES | IC50
CCn1c(C(C)NS(=O)(=O)c2ccc(Cl)c(Cl)c2)cnc1Oc1ccc2cc[nH]c2c1 (stereo not shown) [Compound 250, 3,4-Dichloro-N-{1-[3-ethyl-2-(1H-indol-6-yloxy)-3H-imidazol-4-yl]-ethyl}-benzenesulfonamide] | 0.0205 µM

Same assay, conditions: read-out: Binding test (membrane) % inhibition (10 μM)

SMILES | inhibition at 10 µM
CCn1c(C(C)NS(=O)(=O)c2ccc(F)cc2Cl)cnc1Oc1ccc(C)cc1 (stereo not shown) [Compound 82] | 64.2%

Source: patent publication US7994204B2, “Binding inhibitor of sphingosine-1-phosphate” (Taisho Pharmaceutical Co., Ltd, priority 2006, dated 2011)
